# Values of other authors, collected in patent US20130150323A1, “USE OF ORAL HEPARIN PREPARATIONS TO TREAT URINARY TRACT DISEASES AND CONDITIONS” (Urigen Pharmaceuticals, Inc, priority 2010, published 2013).
# Like-named read-outs stand apart in the source and are kept apart here.
# Legend:
# IC patients [1] = settings: intravesical instillations
# IC patients [2] = settings: intravesical
# [3] = system: bladder mucus layer of normal human volunteers; settings: intravesically administered; 0.4 M potassium solution
# [4] = system: interstitial cystitis patients; settings: oral, double blind studies, 16% on placebo
# [5] = oral
compound,measurement,setting,value
"C[S+](C)[O-] [DMSO, dimethylsulfoxide]",IC patients treated with benefit,IC patients [1],~50%
"O=S(=O)(O)CCS [Mesnex, mesna]",frequency of adverse events (all AEs),cancer patients; IV,85%
same,frequency of adverse events (all AEs),cancer patients; oral,89%
heparin,patients treated in whom effective,IC patients [2],approximately 50%
same,"effect on protamine chemical injury of mucus layer (potassium absorption, urgency and pain)",[3],reversed
pentosanpolysulfate,"good response, patients on active drug",[4],34%
same,availability of this drug orally,[5],2-3%
